Source: ChEMBL document CHEMBL3507680, “University of Dundee, Gates Library screen for HepG2 cell viability”

Assay: Human HepG2 cell viability assay in 384 well format
Assay type: toxicity, cell-based
Set-up: dose 125 nL, time 70.5 hour; concentration not given beside the values
Settings: HepG2 cells, read-out: Inhibition

Structure (SMILES) | cytotoxicity at 70.5 h [%]
CCOc1no[n+]([O-])c1-c1ccccc1 | -3.07
Cc1c(Cl)cccc1NC(=O)c1nc[nH]n1 | 19.3
CN1CCOC(c2cncc(CCC(=O)N(C)C)n2)C1 (stereo not given) | -2.29
CNc1ncc(CN2CCCC2c2[nH]ncc2C(=O)N(C)C)cn1 (stereo not given) | -3.21
CC(C)c1ncc(CN2CCC(c3n[nH]cc3C(=O)N(C)C)C2)cn1 (stereo not given) | -2.3
Cc1cc(C)nc(C2CCCN2C(=O)c2cnccn2)n1 (stereo not given) | -2.97
CN1CCOC(c2cncc(CCC(N)=O)n2)C1 (stereo not given) | -3.04
Cc1cc(-c2cccnc2)nc(C2CCCN2S(C)(=O)=O)n1 (stereo not given) | -3.42
CCCC(=O)N1CCC(c2cc[nH]n2)C1 (stereo not given) | 0.0603
CC(C)c1nccn1-c1nccnc1C1CCCN1Cc1cccnc1 (stereo not given) | -1.81
CCn1ncc(S(=O)(=O)N2CCCC3(CC=CNC3=O)C2)c1C (stereo not given) | -1.6
Cc1ccc(C)c2c(C)c(C(=O)NCC[S+](C)[O-])[nH]c12 (stereo not given) | -4.15
C[C@@H]1CN2C[C@H](O)CC2CN1Cc1ccc2nccnc2c1 (stereo not given in full) | 35.6
COc1ccccc1C1(O)CCCN(C(=O)c2ccnn2C(C)C)C1 (stereo not given) | -1.5
CCN1CCCC1CNCc1cc2cc3c(cc2[nH]c1=O)OCCO3 (stereo not given) | -1.38
Cc1nc(O)c2c(n1)CCN(Cc1cc(C)sc1C)CC2 | 23.6
CC(C)c1nc(O)c2nnn(C[C@@H]3CCCN(Cc4cccs4)C3)c2n1 | 1.47
CCN1CCCC1CNCc1cc2cc(C)c(C)cc2[nH]c1=O (stereo not given) | -2.24
CCN1CCCC1CNCc1cc2cc(OC)c(OC)cc2[nH]c1=O (stereo not given) | -1.47
C[C@H]1CN2C[C@H](O)CC2CN1Cc1ccncc1 (stereo not given in full) | -1.34
COc1cccc(OC)c1CNC(Cc1ccsc1)c1ccc(C)cn1 (stereo not given) | 4.63
NC1(CN2CCCCC2)CCCCC1 | -3.49

Structure (SMILES) | cytotoxicity at 70.5 h [%]
Cc1cc(N(C)C)nc(C2(C)CCNCC2)n1 | 46.3
Cc1nc(C2CCCN(S(C)(=O)=O)C2)sc1Br (stereo not given) | -0.507
CC(=O)NCC(=O)N1CCOC(c2cccc(N)n2)C1 (stereo not given) | 15.3
CN(C)C(=O)C1CCCN(C(=O)c2ccccc2-n2cc(CN)cn2)C1 (stereo not given) | 48.5
NCC(=O)N1CCCC(O)(CN2CCN(c3ccccc3)CC2)CC1 (stereo not given) | 4.71
Nc1nccnc1CC1CCCN(Cc2cccc3[nH]ccc23)C1 (stereo not given) | 0.122
O=C(N[C@@H]1CC[C@@H](N2CCCC2)[C@@H]1O)c1cc2ccccc2[nH]1 | -5.76
CC(=O)N1CCCC1c1nc(N(C)C)ncc1-c1ccccc1 (stereo not given) | 23.2
CNc1ccc(CC2CCCN(Cc3c[nH]cn3)C2)nn1 (stereo not given) | -3.24
Cc1cncnc1C1CCN(CC2CC2)CC1 | 19.8
Cc1cc(N2CCC(Cc3cnccn3)C2)ncn1 (stereo not given) | -7.8
CC(=O)N1CCOC(c2cncc(CCC(N)=O)n2)C1 (stereo not given) | 7.13
COCCC(=O)N1CCC(c2ncncc2-c2ccnc(N)c2)C1 (stereo not given) | -3.28
Cc1ccc(S(=O)(=O)N2CCC(c3n[nH]cc3C(=O)N(C)C)CC2)cc1 | 8.18
CN1CCC(c2nccnc2Nc2cnccn2)CC1 | -0.843
Cc1noc(C)c1CCC(=O)N1CCOCC1CCc1cnccn1 (stereo not given) | 14
Cc1cc(CN2CCc3nc(N4CCOCC4)nc(O)c3CC2)c(C)s1 | -0.651
Cc1cc(C)nc(N2CCC(C(=O)Nc3ccc(C(C)C)cc3)CC2)n1 | -2.09
Cc1cc(N(C)C)nc(C2(C)CCCNC2)n1 (stereo not given) | 18.9
Nc1nccnc1CC1CCCN(Cc2ccnc3ccccc23)C1 (stereo not given) | 27.7
COCC(=O)N1CCC(O)(CN2CCN(c3ccccc3)CC2)C1 (stereo not given) | -1.6
c1c[nH]c(CN2CCCC(Cc3ccc(NC4CCCC4)nn3)C2)n1 (stereo not given) | 7.73

Structure (SMILES) | cytotoxicity at 70.5 h [%]
CC(C)c1nccn1-c1cncc(C2CCCN2Cc2cccnc2)n1 (stereo not given) | -1.69
Cc1ccc(CN2CCc3nc(C(C)C)nc(O)c3CC2)s1 | -4.74
CN(C)C(=O)c1c[nH]nc1C1CCN(S(=O)(=O)c2ccccc2)CC1 | -1.91
NC(=O)c1cn[nH]c1C1CCCN1C(=O)c1cnccn1 (stereo not given) | -10.1
Cc1c(Br)cccc1NC(=O)N(C)CCO | -14.7
CCS(=O)(=O)CCCN1CCSCC1c1ccc(Cl)cc1 (stereo not given) | -13.2
O=C(COc1cc(Cl)cc(Cl)c1)NCc1nncn1C1CC1 | -8.34
COc1ccc(OC)c(S(=O)(=O)NC(=O)C(C)OC)c1 (stereo not given) | -13.3
Cc1ccccc1S(=O)(=O)Cc1nsc(N(C)C)n1 | 0.131
Cc1ccc(S(=O)(=O)Cc2nsc(N(C)C)n2)c(C)c1 | -6.24
Cc1ccnc2c1NC(=O)CN2C(=O)CCc1ccccc1 | -13.4
Cc1ccnc2c1NC(=O)CN2C(=O)CCc1cccs1 | -5.29
COc1ccc(S(=O)(=O)NC(=O)C(C)OC)c(OC)c1 (stereo not given) | -2.74
Cc1cc(CNC(=O)c2cc(NC(=O)C(C)C)ccc2Cl)no1 | 13.5
Cn1cccc1CNCC1CCCn2cc(C(C)(C)C)nc21 (stereo not given) | 5.68
CCN(C)S(=O)(=O)N1CCC(C(O)c2ccc(F)cc2)CC1 (stereo not given) | -2.3
CC(CO)NS(=O)(=O)c1cccc(C(C)C)c1 (stereo not given) | -9
CCN(CC(=O)NC(C)(C)C)Cc1cccc2c1OCCO2 | -11.6
CC(C)C(C(=O)N(C)C)c1cccc(Cl)c1 (stereo not given) | -11
CCCc1noc(C(C)N2CC(n3cccn3)C2)n1 (stereo not given) | 6.9
Cc1ccn(Cc2nc(C(C)OCC(C)C)no2)c(=O)c1 (stereo not given) | 3.64
Cc1ccnc(NC(=O)c2c(C)oc(C)c2C)c1 | 9.9

Structure (SMILES) | cytotoxicity at 70.5 h [%]
CC(C)(NC(=O)NCc1cccc(Br)c1)C(=O)O | -9.51
COc1ccc(OCCN(C)S(=O)(=O)N2CCOCC2)cc1 | -6.12
CC(C(=O)N1CCOCC1)S(=O)(=O)Cc1nc(C(C)(C)C)no1 (stereo not given) | -9.65
Cc1ccc(OCCN(C)S(=O)(=O)N2CCOCC2)cc1 | -0.648
O=S(=O)(CCCn1cncn1)Cc1cccc(F)c1 | -9.13
CC(C(=O)N1CCCC1)S(=O)(=O)Cc1nc(C(C)(C)C)no1 (stereo not given) | -8.31
Cc1cc(N(C)C)nc(N(C)Cc2csc(C)n2)n1 | -7.95
Cc1cnn(CC2CN(c3ncnc4c3CCC4)CCO2)c1 (stereo not given) | -1.52
CC(NC(N)=O)C(=O)N(C)Cc1cccc(C(F)(F)F)c1 (stereo not given) | 10.7
O=C(COCC1CC1)Nc1cc(S(=O)(=O)NC2CC2)ccc1F | -2.2
CSc1ccsc1C(=O)NCCNC(=O)C1CC1 | -6.91
CCC(CC)c1cc(C(=O)N2CCN(C(C#N)C(C)C)CC2)on1 (stereo not given) | -6.08
CCC(C)(C)C1CCCN1C(=O)c1coc(S(=O)(=O)NC)c1 (stereo not given) | 6.9
CN1CCOC(C(=O)Nc2nc(-c3ccc(Cl)cc3)n[nH]2)C1 (stereo not given) | 4.4
CC(Cc1ccco1)NS(=O)(=O)N1CCCCC1 (stereo not given) | -6.18
CN(C)CCNC(=O)c1sc2ccccc2c1C1CCC(CN)CC1 (stereo not given) | 8.65
O=C(Nc1ccccn1)c1cncc(C2CCNCC2)n1 | -6.06
Cn1ccnc1CN(Cc1ccccn1)Cc1ccccc1Cl | 1.27
Cc1ncc(CN(Cc2ccccn2)Cc2ccccc2Cl)n1C | 11.6
